Laboratory results published in ChEMBL document CHEMBL1158504, “Cell permeability of Py-Im-polyamide-fluorescein conjugates: Influence of molecular size and Py/Im content” (Bioorg Med Chem, 2010).

Columns and labels:
Assay type in all cases: ADME, cell-based; call rule not given here
MCF7 [1] = experiment: Cellular uptake in human MCF7 cells assessed as labeled cells at 1 uM after 24 hrs by flow cytometry; settings: mcf7, 24 h
MCF7 [2] = experiment: Cellular uptake in human MCF7 cells assessed as increase in labeled cells at 1 uM after 24 hrs by flow cytometry; settings: mcf7, 24 h
HEK293 [3] = experiment: Cellular uptake in HEK293 cells assessed as labeled cells at 1 uM after 24 hrs by flow cytometry; settings: human, hek293, 24 h
HEK293 [4] = experiment: Cellular uptake in HEK293 cells assessed as localization to nucleus at 1 uM after 24 hrs by fluorescence microscopy; settings: human, hek293, 24 h
HEK293 [5] = experiment: Cellular uptake in HEK293 cells assessed as localization to cytoplasm at 1 uM after 24 hrs by fluorescence microscopy; settings: human, hek293, 24 h
HEK293 [6] = experiment: Cellular uptake in HEK293 cells assessed as intracellular localization at 1 uM after 24 hrs by fluorescence microscopy; settings: human, hek293, 24 h

| Drug uptake (HEK293 [3]) | Compound | also measured |
| --- | --- | --- |
| 39% | CN(C)CCCNC(=O)c1nc(NC(=O)c2nc(NC(=O)c3nc(NC(=O)CCNc4nc(NC(=O)c5nc(NC(=O)c6nc(NC(=O)CCNC(=S)Nc7ccc(-c8c9ccc(=O)cc-9oc9cc(O)ccc89)c(C(=O)O)c7)cn6C)cn5C)cn4C)cn3C)cn2C)cn1C | Drug uptake (MCF7 [2]): Not Active; Drug uptake (HEK293 [4]): Not Active |
| > 82% | CN(C)CCCNC(=O)c1cc(NC(=O)c2cc(NC(=O)c3cc(NC(=O)CCNc4cc(NC(=O)c5cc(NC(=O)c6cc(NC(=O)CCNc7cc(NC(=O)c8cc(NC(=O)c9cc(NC(=O)CCNc%10cc(NC(=O)c%11cc(NC(=O)c%12cc(NC(=O)CCNc%13cc(NC(=O)c%14cc(NC(=O)c%15cc(NC(=O)CCNC(=S)Nc%16ccc(-c%17c%18ccc(=O)cc-%18oc%18cc(O)ccc%17%18)c(C(=O)O)c%16)cn%15C)cn%14C)cn%13C)cn%12C)cn%11C)cn%10C)cn9C)cn8C)cn7C)cn6C)cn5C)cn4C)cn3C)cn2C)cn1C | Drug uptake (HEK293 [5]): Active |
| 53% | CN(C)CCCNC(=O)c1cc(NC(=O)c2cc(NC(=O)c3cc(NC(=O)CCNC(=S)Nc4ccc(-c5c6ccc(=O)cc-6oc6cc(O)ccc56)c(C(=O)O)c4)cn3C)cn2C)cn1C |  |
| > 82% | CN(C)CCCNC(=O)c1cc(NC(=O)c2cc(NC(=O)c3cc(NC(=O)CCNc4cc(NC(=O)c5cc(NC(=O)c6cc(NC(=O)CCNc7cc(NC(=O)c8cc(NC(=O)c9cc(NC(=O)CCNc%10cc(NC(=O)c%11cc(NC(=O)c%12cc(NC(=O)CCNC(=S)Nc%13ccc(-c%14c%15ccc(=O)cc-%15oc%15cc(O)ccc%14%15)c(C(=O)O)c%13)cn%12C)cn%11C)cn%10C)cn9C)cn8C)cn7C)cn6C)cn5C)cn4C)cn3C)cn2C)cn1C |  |

The next lines start with the compound.

| Compound | Drug uptake (HEK293 [3]) | also measured |
| --- | --- | --- |
| CN(C)CCCNC(=O)c1cc(NC(=O)c2cc(NC(=O)c3cc(NC(=O)CCCNC(=O)c4cc(NC(=O)c5cc(NC(=O)c6cc(NC(=O)CCNC(=S)Nc7ccc(-c8c9ccc(=O)cc-9oc9cc(O)ccc89)c(C(=O)O)c7)cn6C)cn5C)cn4C)cn3C)cn2C)cn1C |  | Drug uptake (MCF7 [1]): > 90% |
| CN(C)CCCNC(=O)c1nc(NC(=O)c2nc(NC(=O)c3nc(NC(=O)CCNC(=S)Nc4ccc(-c5c6ccc(=O)cc-6oc6cc(O)ccc56)c(C(=O)O)c4)cn3C)cn2C)cn1C | 53% |  |
| CN(C)CCCNC(=O)c1nc(NC(=O)c2nc(NC(=O)c3nc(NC(=O)CCNc4nc(NC(=O)c5nc(NC(=O)c6nc(NC(=O)CCNc7nc(NC(=O)c8nc(NC(=O)c9nc(NC(=O)CCNC(=S)Nc%10ccc(-c%11c%12ccc(=O)cc-%12oc%12cc(O)ccc%11%12)c(C(=O)O)c%10)cn9C)cn8C)cn7C)cn6C)cn5C)cn4C)cn3C)cn2C)cn1C | 3% |  |
| CN(C)CCCNC(=O)c1cc(NC(=O)c2cc(NC(=O)c3cc(NC(=O)CCNc4cc(NC(=O)c5cc(NC(=O)c6cc(NC(=O)CCNc7cc(NC(=O)c8cc(NC(=O)c9cc(NC(=O)CCNC(=S)Nc%10ccc(-c%11c%12ccc(=O)cc-%12oc%12cc(O)ccc%11%12)c(C(=O)O)c%10)cn9C)cn8C)cn7C)cn6C)cn5C)cn4C)cn3C)cn2C)cn1C | > 82% | Drug uptake (HEK293 [4]): Active |
| CN(C)CCCNC(=O)c1nc(NC(=O)c2nc(NC(=O)c3nc(NC(=O)CCNc4nc(NC(=O)c5nc(NC(=O)c6nc(NC(=O)CCNc7nc(NC(=O)c8nc(NC(=O)c9nc(NC(=O)CCNc%10nc(NC(=O)c%11nc(NC(=O)c%12nc(NC(=O)CCNC(=S)Nc%13ccc(-c%14c%15ccc(=O)cc-%15oc%15cc(O)ccc%14%15)c(C(=O)O)c%13)cn%12C)cn%11C)cn%10C)cn9C)cn8C)cn7C)cn6C)cn5C)cn4C)cn3C)cn2C)cn1C | 1.1% |  |
| CN(C)CCCNC(=O)c1cc(NC(=O)c2cc(NC(=O)c3cc(NC(=O)CCNc4cc(NC(=O)c5cc(NC(=O)c6cc(NC(=O)CCNC(=S)Nc7ccc(-c8c9ccc(=O)cc-9oc9cc(O)ccc89)c(C(=O)O)c7)cn6C)cn5C)cn4C)cn3C)cn2C)cn1C | > 82% | Drug uptake (MCF7 [2]): Active; Drug uptake (HEK293 [4]): Active |
| CN(C)CCCNC(=O)c1cc(NC(=O)c2cc(NC(=O)c3cc(NC(=O)CCNc4cc(NC(=O)c5cc(NC(=O)c6cc(NC(=O)CCNc7cc(NC(=O)c8cc(NC(=O)c9cc(NC(=O)CCNc%10cc(NC(=O)c%11cc(NC(=O)c%12cc(NC(=O)CCNc%13cc(NC(=O)c%14cc(NC(=O)c%15cc(NC(=O)CCNc%16cc(NC(=O)c%17cc(NC(=O)c%18cc(NC(=O)CCNC(=S)Nc%19ccc(-c%20c%21ccc(=O)cc-%21oc%21cc(O)ccc%20%21)c(C(=O)O)c%19)cn%18C)cn%17C)cn%16C)cn%15C)cn%14C)cn%13C)cn%12C)cn%11C)cn%10C)cn9C)cn8C)cn7C)cn6C)cn5C)cn4C)cn3C)cn2C)cn1C | > 82% | Drug uptake (HEK293 [5]): Active; Drug uptake (HEK293 [6]): Active |
